Columns and labels:
NQO1 [1] = target: T1, NQO1 (Homo sapiens, UniProt P15559, R139W); assay: NQO1 enzyme assays using β-lapachone or the standard menadione substrates; assay type: biochemical; conditions: β-lapachone as substrate
T1 construct: S9 Supernatants were prepared from cells in mid-log to late log phase growth; endogenous in cells; host or cells: cancer cell lines, mostly from a non-small cell lung cancer panel (e.g. Calu-3); S9 supernatants
Experimental: (§1) S9 Supernatants were prepared from cells in mid-log to late log phase growth. […] The cell suspensions were sonicated on ice four times, using 10-s pulses, and then centrifuged at 14,000×g for 20 min. The S9 supernatants were aliquoted into microcentrifuge tubes and stored at −80° C. until used. A 1× protease inhibitor cocktail was added to prevent enzyme activity degradation. […] Menadione was used as the electron acceptor. NADH was used as the electron donor.
(§2) NQO1 activity was measured using NADH (200 μM) as the immediate electron donor and menadione (10 μM) as the intermediate electron acceptor. […] Biochem. Biophys. […] NADH: cytochrome b5 reductase was measured using NADH (200 μM) as the electron donor, and […] was measured using NADPH (200 μM) as electron donor (45) in a Beckman DU 640 spectrophotometer (Beckman Coulter, Fullerton, Calif.). Reactions were carried out at 37° C. and were initiated by the addition of S9 supernatants. Varying amounts of supernatants, from 10 to 40 μL, were used to ensure linearity of rates with protein concentration. […] Results shown are the average enzyme activity for three separate cell extractions±S.D. or both values from duplicate experiments.
(§3) Cell lines, mostly from a 5-panel nonsmall cell lung cancer panel from the UT Southwestern SPORE, were assessed for NQO1 polymorphism status and then monitored for NQO1 enzyme assays using β-lapachone or the standard menadione substrates. […] NQO1*2/*2 and *3/*3 polymorphisms were detected from NQO1 *1/*1 wild-type sequences by PCR-RFLP. Genomic DNA was extracted from the cells using Qiagen spin columns. Using previously described oligonucleotide primers, PCR products underwent gel electrophoresis. Final genotyping was determined based on the size and pattern of separated bands diagnostic for *1/*1 (wild-type), or polymorphic *2/*2 or *3/*3 NQO1 polymorphisms.

NQO1 [2] = assay: as above; assay type: biochemical, human; conditions: β-lapachone as substrate, HCC44 *1/*2
Experimental: as §1, §2, §3

PC-3 cells = assay: Apoptosis by TUNEL assay; assay type: cell-based, human; conditions: 2 μM β-lap alone, NQO1-expressing PC-3 cells
Experimental: Apoptosis was quantified using ApoDirect™ (TUNEL) assays from BD Pharmingen as described (Bey et al., 2007, Proc. Natl. Acad. Sci. USA, 104:11832-837). Samples were analyzed by using FC-500 flow cytometer (Beckman Coulter Electronics, Brea, Calif.) and Elite acquisition software. Data were expressed as means±SE from three independent experiments.

[3] = β-Lap pharmacokinetic (PK) analyses; assay type: in vivo; conditions: athymic nude mice, plasma ng/mL, organs ng/g
From the text: FIG. 27 depicts correlative studies of NQO1 expression and β-lap, a bioactivatable drug. (a) NQO1 activity assay (reported as nMoles cyt-c/min/μg protein) in paired tumor (T) and associated normal tissue (N) from human NSCLC patient samples. NQO1 activity was not detectable in normal lung tissue. (b) β-Lap pharmacokinetic (PK) analyses in athymic nude mice. Black circles denote plasma concentrations (ng/mL); other colors denote various organ/tumor concentrations (ng/g). […] (c) NQO1 expression by immunohistochemistry (IHC). Arrowhead denotes NQO1+ prostate cancer cells. Arrow denotes normal prostate gland tissue that have low, or no, detectable NQO1 protein levels.

T1 sequence (P15559 whole entry R139W): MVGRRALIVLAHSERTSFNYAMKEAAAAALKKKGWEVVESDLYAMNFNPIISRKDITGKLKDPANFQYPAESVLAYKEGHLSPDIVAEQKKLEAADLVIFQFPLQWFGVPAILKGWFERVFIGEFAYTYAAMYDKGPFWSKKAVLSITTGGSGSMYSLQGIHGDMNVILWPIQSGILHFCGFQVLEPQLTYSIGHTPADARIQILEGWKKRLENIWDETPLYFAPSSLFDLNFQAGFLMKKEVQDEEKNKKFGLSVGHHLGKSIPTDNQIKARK

SMILES: CC1(C)CCC2=C(O1)c1ccccc1C(=O)C2=O [β-Lap, 3,4-dihydro-2,2-dimethyl-2H-naphtho[1,2-b]pyran-5,6-dione]
- NQO1 activity, β-Lap (NQO1 [1]; Calu-3/NSCLC *3/*3): 243 ± 2 nmol/min/µg
- NQO1 activity, β-Lap (NQO1 [1]; H2009/NSCLC *3/*3): 120 ± 3 nmol/min/µg
- NQO1 activity, β-Lap (NQO1 [1]; HCC1171/NSCLC *3/*3): 369 ± 9 nmol/min/µg
- NQO1 activity, β-Lap (NQO1 [1]; T47D/BreastCancer *3/*3): 138 ± 3 nmol/min/µg
- NQO1 activity, β-Lap (NQO1 [2]): 879 ± 14 nmol/min/µg
- Apoptosis (PC-3 cells): 5±2%
- Organ/tumor concentrations [3]: elevated levels of the drug in lung

Source: patent publication US9469878B2, “Methods of treating cancer comprising targeting NQO1” (The Board of Regents of the University of Texas System, priority 2010, dated 2016)
